What was measured:
Format in all cases: functional, cell-based
A549 = assay: Antiproliferative activity against human A549 cells incubated for 48 hrs by MTT assay; details: A549, 48 h
MCF7 = assay: Antiproliferative activity against human MCF7 cells incubated for 48 hrs by MTT assay; details: MCF7, 48 h
SW480 = assay: Antiproliferative activity against human SW480 cells incubated for 48 hrs by MTT assay; details: SW480, 48 h
SMMC-7721 = assay: Antiproliferative activity against human SMMC-7721 cells incubated for 48 hrs by MTT assay; details: SMMC-7721, 48 h
HL-60 = assay: Antiproliferative activity against human HL-60 cells incubated for 48 hrs by MTT assay; details: HL-60, 48 h
HeLa = assay: Antiproliferative activity against human HeLa cells incubated for 48 hrs by MTT assay
HepG2 [1] = assay: Antiproliferative activity against human HepG2 cells incubated for 48 hrs by MTT assay; details: HepG2, 48 h
B16 = assay: Antiproliferative activity against […] cells incubated for 48 to 72 hrs by MTT assay; details: Mus musculus
NCI-H1993 = assay: Antiproliferative activity against human NCI-H1993 cells incubated for 48 to 72 hrs by MTT assay
MKN-45 = assay: Antiproliferative activity against human MKN-45 cells incubated for 48 to 72 hrs by MTT assay
HepG2 [2] = assay: Antiproliferative activity against human HepG2 cells incubated for 48 to 72 hrs by MTT assay

Row | SMILES | IC50 (A549) | IC50 (MCF7) | IC50 (SW480) | IC50 (SMMC-7721) | IC50 (HL-60) | IC50 (HeLa) | IC50 (HepG2 [1]) | IC50 (B16) | IC50 (NCI-H1993) | IC50 (MKN-45) | IC50 (HepG2 [2])
1 | CCCC(=O)O[C@@H]1[C@@H](OC(=O)CCC)[C@@H](O[C@@H]2c3cc4c(cc3[C@@H](c3cc(OC)c(O)c(OC)c3)[C@H]3C(=O)OC[C@@H]32)OCO4)OC[C@H]1OC(=O)CCC | > 2900 nM | > 2900 nM | > 2900 nM | > 2900 nM | > 2900 nM |  |  |  |  |  | 
2 | COc1cc([C@@H]2c3cc4c(cc3[C@@H](n3cc(COC(=O)CCCC[C@@H]5SC[C@@H]6NC(=O)N[C@@H]65)nn3)[C@H]3COC(=O)[C@H]23)OCO4)cc(OC)c1OC | > 130 nM | > 130 nM | > 130 nM | > 130 nM | > 130 nM |  |  |  |  |  | 
3 | COc1cc([C@@H]2c3cc4c(cc3[C@@H](O[C@@H]3CC[C@@H](O)[C@@H](C(C)C)O3)[C@H]3COC(=O)[C@H]23)OCO4)cc(OC)c1O | 41.6 nM | 41.6 nM |  |  |  | 41.6 nM | 41.6 nM |  |  |  | 
4 | COc1cc([C@@H]2c3cc4c(cc3C[C@H]3COC(=O)[C@@H]32)OCO4)cc(OC)c1OC(=O)NCC(=O)N1CCN(c2ccc([N+](=O)[O-])cc2)CC1 | 183 nM |  |  |  |  | 183 nM | 210 nM |  |  |  | 
5 | COc1cc([C@@H]2c3cc4c(cc3[C@@H](O[C@@H]3CC[C@@H](O)[C@@H](C)O3)[C@H]3COC(=O)[C@H]23)OCO4)cc(OC)c1O | 41.6 nM | 41.6 nM |  |  |  | 41.6 nM | 41.6 nM |  |  |  | 
6 | COc1cc([C@@H]2c3cc4c(cc3[C@@H](NC(=O)CCCCCNC(=O)CCCC[C@@H]3SC[C@@H]5NC(=O)N[C@@H]53)[C@H]3COC(=O)[C@H]23)OCO4)cc(OC)c1OC | > 130 nM | > 130 nM | > 130 nM | > 130 nM | > 130 nM |  |  |  |  |  | 
7 | COc1cc([C@@H]2c3cc4c(cc3[C@@H](OC(=O)CCCC[C@@H]3SC[C@@H]5NC(=O)N[C@@H]53)[C@H]3COC(=O)[C@H]23)OCO4)cc(OC)c1OC | > 130 nM | > 130 nM | > 130 nM | > 130 nM | > 130 nM |  |  |  |  |  | 
8 | COc1cc([C@@H]2c3cc4c(cc3[C@@H](O[C@H]3O[C@H](COC(C)=O)[C@@H](OC(C)=O)[C@H](OC(C)=O)[C@H]3OC(C)=O)[C@H]3COC(=O)[C@H]23)OCO4)cc(OC)c1O | > 140 nM | > 140 nM | > 140 nM | > 140 nM | > 140 nM |  |  |  |  |  | 
9 | COc1cc([C@@H]2c3cc4c(cc3[C@@H](OC(=O)CCCCCNC(=O)CCCC[C@@H]3SC[C@@H]5NC(=O)N[C@@H]53)[C@H]3COC(=O)[C@H]23)OCO4)cc(OC)c1O | > 130 nM | > 130 nM | > 130 nM | > 130 nM | > 130 nM |  |  |  |  |  | 
10 | COc1cc([C@@H]2c3cc4c(cc3[C@@H](NC(=O)CCCCCNC(=O)CCCC[C@@H]3SC[C@@H]5NC(=O)N[C@@H]53)[C@H]3COC(=O)[C@H]23)OCO4)cc(OC)c1O | > 130 nM | > 130 nM | > 130 nM | > 130 nM | > 130 nM |  |  |  |  |  | 
11 | COc1cc([C@@H]2c3cc4c(cc3[C@@H](NC(=O)CCCC[C@@H]3SC[C@@H]5NC(=O)N[C@@H]53)[C@H]3COC(=O)[C@H]23)OCO4)cc(OC)c1OC | > 130 nM | > 130 nM | > 130 nM | > 130 nM | > 130 nM |  |  |  |  |  | 
12 | COc1cc([C@@H]2c3cc4c(cc3[C@@H](n3cc(COC(=O)CCCCCNC(=O)CCCC[C@@H]5SC[C@@H]6NC(=O)N[C@@H]65)nn3)[C@H]3COC(=O)[C@H]23)OCO4)cc(OC)c1O | > 130 nM | > 130 nM | > 130 nM | > 130 nM | > 130 nM |  |  |  |  |  | 
13 | COc1cc([C@@H]2c3cc4c(cc3[C@H](OC(=O)CCCC[C@@H]3SC[C@@H]5NC(=O)N[C@@H]53)[C@H]3COC(=O)[C@H]23)OCO4)cc(OC)c1OC | > 130 nM | > 130 nM | > 130 nM | > 130 nM | > 130 nM |  |  |  |  |  | 
14 | COc1cc([C@@H]2c3cc4c(cc3[C@@H](OC(=O)CCCCCNC(=O)CCCC[C@@H]3SC[C@@H]5NC(=O)N[C@@H]53)[C@H]3COC(=O)[C@H]23)OCO4)cc(OC)c1OC | > 130 nM | > 130 nM | > 130 nM | > 130 nM | > 130 nM |  |  |  |  |  | 
15 | COc1cc([C@@H]2c3cc4c(cc3[C@@H](NC(=O)CCCC[C@@H]3SC[C@@H]5NC(=O)N[C@@H]53)[C@H]3COC(=O)[C@H]23)OCO4)cc(OC)c1O | > 130 nM | > 130 nM | > 130 nM | > 130 nM | > 130 nM |  |  |  |  |  | 
16 | COc1cc([C@@H]2c3cc4c(cc3[C@H](n3cc(COc5ccc6ccc(=O)oc6c5)nn3)[C@H]3COC(=O)[C@H]23)OCO4)cc(OC)c1OC |  |  |  |  |  |  |  | 130 nM | 130 nM | 130 nM | 130 nM
17 | COc1cc(C(C)=O)ccc1OCc1cn([C@H]2c3cc4c(cc3[C@@H](c3cc(OC)c(OC)c(OC)c3)[C@H]3C(=O)OC[C@@H]32)OCO4)nn1 |  |  |  |  |  |  |  | 130 nM | 130 nM | 130 nM | 130 nM

Row | SMILES | IC50 (A549) | IC50 (MCF7) | IC50 (SW480) | IC50 (SMMC-7721) | IC50 (HL-60) | IC50 (HeLa) | IC50 (HepG2 [1]) | IC50 (B16) | IC50 (NCI-H1993) | IC50 (MKN-45) | IC50 (HepG2 [2])
18 | COc1cc(C(=O)/C=C/c2ccncc2)ccc1OCc1cn([C@H]2c3cc4c(cc3[C@@H](c3cc(OC)c(OC)c(OC)c3)[C@H]3C(=O)OC[C@@H]32)OCO4)nn1 |  |  |  |  |  |  |  | 130 nM | 130 nM | 130 nM | 130 nM
19 | COc1cc([C@@H]2c3cc4c(cc3[C@H](n3cc(COc5ccc(-c6ccccc6)cc5)nn3)[C@H]3COC(=O)[C@H]23)OCO4)cc(OC)c1OC |  |  |  |  |  |  |  | 150 nM | 150 nM | 150 nM | 150 nM
20 | COc1cc(C(=O)/C=C/c2ccc(N(C)C)cc2)ccc1OCc1cn([C@H]2c3cc4c(cc3[C@@H](c3cc(OC)c(OC)c(OC)c3)[C@H]3C(=O)OC[C@@H]32)OCO4)nn1 |  |  |  |  |  |  |  | 130 nM | 130 nM | 130 nM | 130 nM
21 | COc1ccc(SCc2cn([C@H]3c4cc5c(cc4[C@@H](c4cc(OC)c(OC)c(OC)c4)[C@H]4C(=O)OC[C@@H]43)OCO5)nn2)cc1 |  |  |  |  |  |  |  | 130 nM | 130 nM | 130 nM | 130 nM
22 | CCc1ccc(OC(C)(C)c2cn([C@H]3c4cc5c(cc4[C@@H](c4cc(OC)c(OC)c(OC)c4)[C@H]4C(=O)OC[C@@H]43)OCO5)nn2)cc1 |  |  |  |  |  |  |  | 150 nM | 150 nM | 150 nM | 150 nM
23 | COc1cc(C(=O)/C=C/c2ccsc2)ccc1OCc1cn([C@H]2c3cc4c(cc3[C@@H](c3cc(OC)c(OC)c(OC)c3)[C@H]3C(=O)OC[C@@H]32)OCO4)nn1 |  |  |  |  |  |  |  | 130 nM | 130 nM | 130 nM | 130 nM
24 | COc1cc([C@@H]2c3cc4c(cc3[C@@H](n3cc(COC(=O)CCCCCNC(=O)CCCC[C@@H]5SC[C@@H]6NC(=O)N[C@@H]65)nn3)[C@H]3COC(=O)[C@H]23)OCO4)cc(OC)c1OC | > 130 nM | > 130 nM | > 130 nM | > 130 nM | > 130 nM |  |  |  |  |  | 
25 | COc1cc([C@@H]2c3cc4c(cc3[C@H](n3cc(CNC(=O)c5ccc(Cl)cc5)nn3)[C@H]3COC(=O)[C@H]23)OCO4)cc(OC)c1OC |  |  |  |  |  |  |  | 130 nM | 130 nM | 130 nM | 130 nM
26 | COc1cc([C@@H]2c3cc4c(cc3[C@H](n3cc(COc5ccc([N+](=O)[O-])cc5)nn3)[C@H]3COC(=O)[C@H]23)OCO4)cc(OC)c1OC |  |  |  |  |  |  |  | 130 nM | 130 nM | 130 nM | 130 nM
27 | CCC(C)(C)c1ccc(OCc2cn([C@H]3c4cc5c(cc4[C@@H](c4cc(OC)c(OC)c(OC)c4)[C@H]4C(=O)OC[C@@H]43)OCO5)nn2)cc1 |  |  |  |  |  |  |  | 130 nM | 130 nM | 130 nM | 130 nM
28 | COc1ccccc1/C=C/C(=O)c1ccc(OCc2cn([C@H]3c4cc5c(cc4[C@@H](c4cc(OC)c(OC)c(OC)c4)[C@H]4C(=O)OC[C@@H]43)OCO5)nn2)c(OC)c1 |  |  |  |  |  |  |  | 130 nM | 130 nM | 130 nM | 130 nM
29 | COc1ccc(OC(C)(C)c2cn([C@H]3c4cc5c(cc4[C@@H](c4cc(OC)c(OC)c(OC)c4)[C@H]4C(=O)OC[C@@H]43)OCO5)nn2)cc1 |  |  |  |  |  |  |  | 130 nM | 130 nM | 130 nM | 130 nM
30 | COc1cc([C@@H]2c3cc4c(cc3[C@H](n3cc(CNC(=O)c5ccccc5Cl)nn3)[C@H]3COC(=O)[C@H]23)OCO4)cc(OC)c1OC |  |  |  |  |  |  |  | 130 nM | 130 nM | 130 nM | 130 nM
31 | COc1cc(C(=O)/C=C/c2ccc(C(F)(F)F)cc2)ccc1OCc1cn([C@H]2c3cc4c(cc3[C@@H](c3cc(OC)c(OC)c(OC)c3)[C@H]3C(=O)OC[C@@H]32)OCO4)nn1 |  |  |  |  |  |  |  | 130 nM | 130 nM | 130 nM | 130 nM
32 | COc1cc([C@@H]2c3cc4c(cc3[C@H](OC(=O)CCCCCNC(=O)CCCC[C@@H]3SC[C@@H]5NC(=O)N[C@@H]53)[C@H]3COC(=O)[C@H]23)OCO4)cc(OC)c1OC | > 130 nM | > 130 nM | > 130 nM | > 130 nM | > 130 nM |  |  |  |  |  | 
33 | COc1cc([C@@H]2c3cc4c(cc3[C@@H](n3cc(COC(=O)CCCC[C@@H]5SC[C@@H]6NC(=O)N[C@@H]65)nn3)[C@H]3COC(=O)[C@H]23)OCO4)cc(OC)c1O | > 130 nM | > 130 nM | > 130 nM | > 130 nM | > 130 nM |  |  |  |  |  | 

From ChEMBL document CHEMBL4818987, “Recent advances of podophyllotoxin/epipodophyllotoxin hybrids in anticancer activity, mode of action, and structure-activity relationship: An update (2010-2020)” (Eur J Med Chem, 2020)
